Measurements as given in patent publication US11001590B2, “Pyrazolopyrimidine derivatives” (BAYER ANIMAL HEALTH GMBH, priority 2016, dated 2021).

Tests used:
[1] = tested on: Dirofilaria immitis microfilariae; experiment: In vitro assay 3: Dirofilaria immitis microfilariae (DIROIM L1), motility; conditions: 72 h, reduction of motility vs negative control, 72 h incubation
[2] = tested on: Dirofilaria immitis third-stage larvae; experiment: In vitro assay 4: Dirofilaria immitis (DIROIM L4), motility of larvae; conditions: 72 h
[3] = log P by HPLC on reversed phase columns (Method L0; [a] acidic, [b] neutral range)
Procedure: Calibration was done with straight-chain alkan-2-ones (with 3 to 16 carbon atoms) with known log P values (measurement of log P values using retention times with linear interpolation between successive alkanones). Lambda-max-values were determined using UV-spectra from 200 nm to 400 nm and the peak values of the chromatographic signals.

[4] = molecular target: C. elegans Slo-1a (Caenorhabditis elegans, UniProt Q95V25); experiment: In vitro assay 1: C. elegans Slo-1a, action at a recombinant C. elegans CHO cell line (membrane potential measurement)
Sequence of C. elegans Slo-1a (Q95V25 whole entry): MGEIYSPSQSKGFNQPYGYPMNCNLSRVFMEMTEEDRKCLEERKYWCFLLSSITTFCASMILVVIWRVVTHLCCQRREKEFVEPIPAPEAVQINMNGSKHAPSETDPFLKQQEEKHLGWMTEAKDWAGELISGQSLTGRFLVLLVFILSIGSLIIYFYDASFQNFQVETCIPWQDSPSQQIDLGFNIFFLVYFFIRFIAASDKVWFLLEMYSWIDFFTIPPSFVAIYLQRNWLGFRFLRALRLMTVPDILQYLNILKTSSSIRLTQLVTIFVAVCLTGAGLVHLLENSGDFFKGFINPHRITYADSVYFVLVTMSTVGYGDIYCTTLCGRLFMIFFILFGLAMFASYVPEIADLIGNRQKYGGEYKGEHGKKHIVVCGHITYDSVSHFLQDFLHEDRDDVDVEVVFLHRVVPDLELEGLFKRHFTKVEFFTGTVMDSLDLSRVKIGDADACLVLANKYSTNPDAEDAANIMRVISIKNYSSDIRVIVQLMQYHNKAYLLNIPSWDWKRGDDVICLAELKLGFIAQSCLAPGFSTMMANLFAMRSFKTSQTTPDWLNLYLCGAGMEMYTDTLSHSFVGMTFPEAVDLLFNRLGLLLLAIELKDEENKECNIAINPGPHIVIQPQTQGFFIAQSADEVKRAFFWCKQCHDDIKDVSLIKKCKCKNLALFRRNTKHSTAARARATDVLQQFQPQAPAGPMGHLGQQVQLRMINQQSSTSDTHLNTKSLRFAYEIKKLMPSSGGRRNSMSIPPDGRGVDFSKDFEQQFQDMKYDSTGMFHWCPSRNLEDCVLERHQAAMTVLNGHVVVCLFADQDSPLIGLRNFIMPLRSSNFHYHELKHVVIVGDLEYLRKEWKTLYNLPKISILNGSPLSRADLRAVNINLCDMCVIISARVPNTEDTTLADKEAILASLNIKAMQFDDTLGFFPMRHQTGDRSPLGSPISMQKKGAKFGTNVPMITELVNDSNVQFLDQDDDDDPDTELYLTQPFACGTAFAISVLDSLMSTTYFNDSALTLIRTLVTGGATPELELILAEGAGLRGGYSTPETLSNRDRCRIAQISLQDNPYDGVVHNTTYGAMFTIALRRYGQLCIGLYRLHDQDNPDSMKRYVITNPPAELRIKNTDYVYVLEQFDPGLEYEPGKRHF

[5] = tested on: Litomosoides sigmodontis third-stage larvae; experiment: In vitro assay 7: Litomosoides sigmodontis L3 (LTMOSI), motility; conditions: 72 h, reduction of motility vs negative control, 72 h incubation

Cc1nn2c(C3CC3)c(C(=O)N[C@H]3CCOc4ccccc43)cnc2c1-c1c(F)cccc1F [Example 445]
EC50 [1]: < 0.1 µg/mL | EC50 [2]: < 0.1 µg/mL | chromatographic logP [3]: 3.43 | EC50 [4]: 2 nM

Cc1nn2c(C(C)C)c(C(=O)N[C@H]3CCOc4ccccc43)cnc2c1-c1cccc(C(F)F)c1 [Example 153]
EC50 [1]: < 0.1 µg/mL | EC50 [2]: < 0.1 µg/mL | EC50 [5]: < 0.1 µg/mL | chromatographic logP [3]: 4.41 | EC50 [4]: 126 nM

Cc1nn2c(C3CC3)c(C(=O)N[C@H]3CCOc4ccccc43)cnc2c1-c1ccc(F)cc1 [Example 463]
EC50 [1]: < 0.1 µg/mL | EC50 [2]: < 0.1 µg/mL | chromatographic logP [3]: 3.62 | EC50 [4]: 7.94 nM

Cc1nn2c(C(C)C)c(C(=O)N[C@H]3CCOc4ccccc43)cnc2c1-c1cccc(F)c1 [Example 396]
EC50 [1]: < 0.1 µg/mL | EC50 [2]: < 0.1 µg/mL | EC50 [5]: < 0.1 µg/mL | chromatographic logP [3]: 4.45 | EC50 [4]: 15.8 nM

Cc1nn2c(C(C)C)c(C(=O)N[C@H]3CCc4ccccc43)cnc2c1-c1cc(F)ccc1F [Example 116]
EC50 [1]: < 0.1 µg/mL | EC50 [2]: < 0.1 µg/mL | EC50 [5]: < 0.1 µg/mL | chromatographic logP [3]: 4.59 | EC50 [4]: 10 nM

Cc1nn2c(C3CC3)c(C(=O)N[C@H]3CCOc4ccccc43)cnc2c1-c1ccccc1F [Example 450]
EC50 [1]: < 0.1 µg/mL | EC50 [2]: < 0.1 µg/mL | chromatographic logP [3]: 3.45 | EC50 [4]: 3.16 nM

Cc1nn2c(C(C)C)c(C(=O)N[C@H]3CCOc4ccccc43)cnc2c1-c1cc(F)ccc1F [Example 121]
EC50 [1]: < 0.1 µg/mL | EC50 [2]: < 0.1 µg/mL | EC50 [5]: < 0.1 µg/mL | chromatographic logP [3]: 4.41 | EC50 [4]: 6.31 nM

Cc1nn2c(C3CC3)c(C(=O)N[C@H]3CCc4ccccc43)cnc2c1-c1ccccc1F [Example 357]
EC50 [1]: < 0.1 µg/mL | EC50 [2]: < 0.1 µg/mL | EC50 [5]: < 0.1 µg/mL | chromatographic logP [3]: 3.67 | EC50 [4]: 6.31 nM

Cc1nn2c(C3CC3)c(C(=O)N[C@H]3CCOc4ccccc43)cnc2c1-c1c(F)cccc1Cl [Example 458]
EC50 [1]: < 0.1 µg/mL | EC50 [2]: < 0.1 µg/mL | EC50 [5]: < 0.1 µg/mL | chromatographic logP [3]: 3.65 | EC50 [4]: 1.58 nM

Cc1nn2c(C3CC3)c(C(=O)N[C@H]3CCc4ccccc43)cnc2c1-c1cccc(F)c1 [Example 353]
EC50 [1]: < 0.1 µg/mL | EC50 [2]: < 1 µg/mL | EC50 [5]: < 0.1 µg/mL | chromatographic logP [3]: 3.95 | EC50 [4]: 7.94 nM

Cc1nn2c(C3CC3)c(C(=O)N[C@H]3CCc4ccccc43)cnc2c1-c1cccc(F)c1F [Example 424]
EC50 [1]: < 0.1 µg/mL | EC50 [2]: < 0.1 µg/mL | EC50 [5]: < 0.1 µg/mL | chromatographic logP [3]: 3.84 | EC50 [4]: 2.51 nM

COCc1cccc(-c2c(C)nn3c(C(C)C)c(C(=O)N[C@H]4CCCc5ccccc54)cnc23)c1 [Example 344]
EC50 [1]: < 1 µg/mL | EC50 [2]: < 1 µg/mL | chromatographic logP [3]: 4.74 | EC50 [4]: 7.94 nM

Cc1nn2c(C3CC3)c(C(=O)N[C@H]3CCc4ccccc43)cnc2c1-c1cccc(N(C)C)c1 [Example 348]
EC50 [1]: < 1 µg/mL | EC50 [2]: < 1 µg/mL | chromatographic logP [3]: 2.98 | EC50 [4]: 3.98 nM

COCc1cccc(-c2c(C)nn3c(C4CC4)c(C(=O)N[C@H]4CCc5ccccc54)cnc23)c1 [Example 350]
EC50 [1]: < 0.1 µg/mL | EC50 [2]: < 1 µg/mL | chromatographic logP [3]: 3.65 | EC50 [4]: 10 nM

Cc1nn2c(C(C)C)c(C(=O)N[C@H]3CCOc4ccccc43)cnc2c1-c1ccccc1Cl [Example 107]
EC50 [1]: < 0.1 µg/mL | EC50 [2]: < 0.1 µg/mL | EC50 [5]: < 0.1 µg/mL | chromatographic logP [3]: 4.37 | EC50 [4]: 5.01 nM

Cc1nn2c(C(C)C)c(C(=O)N[C@H]3CCc4ccccc43)cnc2c1-c1cc(Cl)ccc1Cl [Example 171]
EC50 [1]: < 0.1 µg/mL | EC50 [2]: < 0.1 µg/mL | EC50 [5]: < 0.1 µg/mL | chromatographic logP [3]: 5.31 | EC50 [4]: 5.01 nM

Cc1nn2c(C3CC3)c(C(=O)N[C@H]3CCc4ccccc43)cnc2c1-c1c(F)cccc1F [Example 405]
EC50 [1]: < 0.1 µg/mL | EC50 [2]: < 0.1 µg/mL | EC50 [5]: < 0.1 µg/mL | chromatographic logP [3]: 3.66 | EC50 [4]: 3.16 nM

CC(C)c1c(C(=O)N[C@H]2CCc3ccccc32)cnc2c(-c3c(F)cccc3F)c(C(F)F)nn12 [Example 434]
EC50 [1]: < 0.1 µg/mL | EC50 [2]: < 0.1 µg/mL | chromatographic logP [3]: 4.23 | EC50 [4]: 7.94 nM

Cc1nn2c(C3CC3)c(C(=O)N[C@H]3CCc4ccccc43)cnc2c1-c1c(F)ccc(F)c1F [Example 437]
EC50 [1]: < 0.1 µg/mL | EC50 [2]: < 0.1 µg/mL | EC50 [5]: < 0.1 µg/mL | chromatographic logP [3]: 3.83 | EC50 [4]: 1.58 nM

Cc1nn2c(N3CCOCC3)c(C(=O)N[C@H]3CCOc4ccccc43)cnc2c1-c1cccc(F)c1F [Example 534]
EC50 [1]: < 0.1 µg/mL | EC50 [2]: < 0.1 µg/mL | EC50 [5]: < 0.1 µg/mL | chromatographic logP [3]: 4.32 | EC50 [4]: 3.16 nM

Cc1nn2c(C(C)C)c(C(=O)N[C@H]3CCc4ccccc43)cnc2c1-c1cc(F)cc(F)c1 [Example 323]
EC50 [1]: < 0.1 µg/mL | EC50 [2]: < 1 µg/mL | EC50 [5]: < 0.1 µg/mL | chromatographic logP [3]: 5.02 | EC50 [4]: 39.8 nM

Cc1nn2c(C3CC3)c(C(=O)N[C@H]3CCOc4ccccc43)cnc2c1-c1cc(F)ccc1F [Example 448]
EC50 [1]: < 0.1 µg/mL | EC50 [2]: < 0.1 µg/mL | chromatographic logP [3]: 3.61 | EC50 [4]: 3.16 nM

Cc1nn2c(C(C)C)c(C(=O)N[C@H]3CCc4ccccc43)cnc2c1-c1ccccc1F [Example 95]
EC50 [1]: < 0.1 µg/mL | EC50 [2]: < 0.1 µg/mL | EC50 [5]: < 0.1 µg/mL | chromatographic logP [3]: 4.41 | EC50 [4]: 6.31 nM

Cc1nn2c(C(C)C)c(C(=O)N[C@H]3CCOc4ccccc43)cnc2c1-c1cncc(Cl)c1 [Example 402]
EC50 [1]: < 0.1 µg/mL | EC50 [2]: < 0.1 µg/mL | EC50 [5]: < 0.1 µg/mL | chromatographic logP [3]: 3.91 | EC50 [4]: 20 nM

Cc1nn2c(C(C)C)c(C(=O)N[C@H]3CCCc4ccccc43)cnc2c1-c1cc(Cl)ccc1Cl [Example 172]
EC50 [1]: < 0.1 µg/mL | EC50 [2]: < 0.1 µg/mL | chromatographic logP [3]: 5.64 | EC50 [4]: 10 nM

Cc1nn2c(C3CC3)c(C(=O)N[C@H]3CCOc4ccccc43)cnc2c1-c1cc(Cl)cc(C(F)(F)F)c1 [Example 465]
EC50 [1]: < 0.1 µg/mL | EC50 [2]: < 0.1 µg/mL | EC50 [5]: < 0.1 µg/mL | chromatographic logP [3]: 5.11 | EC50 [4]: 10 nM

Cc1nn2c(C(C)C)c(C(=O)N[C@H]3CCOc4ccccc43)cnc2c1-c1ccc(F)c(F)c1 [Example 100]
EC50 [1]: < 0.1 µg/mL | EC50 [2]: < 0.1 µg/mL | EC50 [5]: < 0.1 µg/mL | chromatographic logP [3]: 4.56 | EC50 [4]: 7.94 nM

Cc1nn2c(N3CCOCC3)c(C(=O)N[C@H]3CCOc4ccccc43)cnc2c1-c1cccc(Cl)c1F [Example 524]
EC50 [1]: < 0.1 µg/mL | EC50 [2]: < 0.1 µg/mL | chromatographic logP [3]: 4.69 | EC50 [4]: 1.26 nM

Cc1nn2c(C(C)C)c(C(=O)N[C@H]3CCc4ccccc43)cnc2c1-c1cccc(C(F)(F)F)c1 [Example 4]
EC50 [1]: < 1 µg/mL | EC50 [2]: < 1 µg/mL | chromatographic logP [3]: 5.3 | EC50 [4]: 31.6 nM

Cc1nn2c(C(C)C)c(C(=O)N[C@H]3CCc4ccccc43)cnc2c1-c1cccc(Cl)c1Cl [Example 168]
EC50 [1]: < 0.1 µg/mL | EC50 [2]: < 0.1 µg/mL | EC50 [5]: < 0.1 µg/mL | chromatographic logP [3]: 5.13 | EC50 [4]: 3.16 nM

Cc1nn2c(C(C)C)c(C(=O)N[C@H]3CCOc4ccccc43)cnc2c1-c1cccc(Cl)c1 [Example 117]
EC50 [1]: < 0.1 µg/mL | EC50 [2]: < 0.1 µg/mL | EC50 [5]: < 0.1 µg/mL | chromatographic logP [3]: 4.87 | EC50 [4]: 5.01 nM

Cc1nn2c(C3CC3)c(C(=O)N[C@H]3CCc4ccccc43)cnc2c1-c1cc(F)ccc1F [Example 422]
EC50 [1]: < 0.1 µg/mL | EC50 [2]: < 0.1 µg/mL | EC50 [5]: < 0.1 µg/mL | chromatographic logP [3]: 3.84 | EC50 [4]: 3.98 nM

Cc1nn2c(C(C)C)c(C(=O)N[C@H]3CCOc4ccccc43)cnc2c1-c1ccccc1F [Example 92]
EC50 [1]: < 0.1 µg/mL | EC50 [2]: < 0.1 µg/mL | EC50 [5]: < 0.1 µg/mL | chromatographic logP [3]: 4.18 | EC50 [4]: 6.31 nM

Cc1nn2c(C(C)C)c(C(=O)N[C@H]3CCc4ccccc43)cnc2c1-c1ccc(F)c(F)c1 [Example 103]
EC50 [1]: < 0.1 µg/mL | EC50 [2]: < 0.1 µg/mL | EC50 [5]: < 0.1 µg/mL | chromatographic logP [3]: 4.82 | EC50 [4]: 20 nM

COCc1cccc(-c2c(C)nn3c(C(C)C)c(C(=O)N[C@H]4CCc5ccccc54)cnc23)c1 [Example 300]
EC50 [1]: < 1 µg/mL | EC50 [2]: < 0.1 µg/mL | EC50 [5]: < 0.1 µg/mL | chromatographic logP [3]: 4.43 | EC50 [4]: 6.31 nM

COc1cccc(-c2c(C)nn3c(C(C)C)c(C(=O)N[C@H]4CCc5ccccc54)cnc23)c1 [Example 289]
EC50 [1]: < 1 µg/mL | EC50 [5]: < 0.1 µg/mL | chromatographic logP [3]: 4.51 | EC50 [4]: 15.8 nM

Cc1nn2c(C3CC3)c(C(=O)N[C@H]3CCc4ccccc43)cnc2c1-c1ccc(F)c(F)c1 [Example 358]
EC50 [1]: < 1 µg/mL | EC50 [2]: < 1 µg/mL | chromatographic logP [3]: 4.1 | EC50 [4]: 12.6 nM

Cc1nn2c(C(C)C)c(C(=O)N[C@H]3CCc4ccccc43)cnc2c1-c1cccc(Cl)c1 [Example 287]
EC50 [1]: < 1 µg/mL | EC50 [5]: < 0.1 µg/mL | chromatographic logP [3]: 5.19 | EC50 [4]: 15.8 nM

Cc1nn2c(C(C)C)c(C(=O)N[C@H]3CCc4ccccc43)cnc2c1-c1cccc(N2CC(F)(F)C2)c1 [Example 364]
EC50 [1]: < 1 µg/mL | EC50 [2]: < 1 µg/mL | chromatographic logP [3]: 4.89 | EC50 [4]: 10 nM

Cc1nn2c(C(C)C)c(C(=O)N[C@H]3CCc4ccccc43)cnc2c1-c1cccc(F)c1Cl [Example 165]
EC50 [1]: < 0.1 µg/mL | EC50 [2]: < 0.1 µg/mL | chromatographic logP [3]: 4.74 | EC50 [4]: 2 nM

Cc1nn2c(C(C)C)c(C(=O)N[C@H]3CCc4ccccc43)cnc2c1-c1cccc(F)c1 [Example 290, (S)—N-(2,3-Dihydro-1H-inden-1-yl)-3-(3-fluorophenyl)-7-isopropyl-2-methylpyrazolo[1,5-a]pyrimidine-6-carboxamide]
EC50 [1]: < 1 µg/mL | EC50 [5]: < 1 µg/mL | chromatographic logP [3]: 4.73 | EC50 [4]: 15.8 nM
